The term inhibition denotes the share of the control response that was lost under treatment. By IC50 is commonly meant the concentration at which inhibition is half-maximal. Broadly, the Ki is the equilibrium dissociation constant of an inhibitor or competing ligand from its target.

Assay [1] has as its target T1, Leukotriene B4 receptor (Homo sapiens, UniProt Q9NPC1+Q15722). Briefly: Antagonist activity against LTB4 receptor in human U-937 cells at 0.00001 M incubated for 40 mins by liquid scintillation counting method. The class given is cell-based. As to conditions: dose 10 µM.
Assay [2] has as its target T1, Leukotriene B4 receptor. Put plainly: Antagonist activity against LTB4 receptor in human U-937 cells at 0.0000001 M incubated for 40 mins by liquid scintillation counting method. The class given is cell-based. Conditions: dose 100 nM.
Assay [3] has as its target T1, Leukotriene B4 receptor. Briefly: Antagonist activity against LTB4 receptor in human U-937 cells incubated for 40 mins by liquid scintillation counting method. The assay is classed as cell-based.
In assay [4] the target is T1, Leukotriene B4 receptor. Briefly: Antagonist activity against LTB4 receptor (unknown origin) assessed as inhibition constant. The assay is classed as protein assay.
In assay [5] the test system is Rattus norvegicus. Put plainly: Antinflammatory activity against carrageenan induced pedal edema rat model assessed as average pedal volume at 30 mg/kg,po administration and measured after 1 hr (reference value: 1.82 +/- 0.04 mL). The class given is functional. On the technique in general: In the carrageenan paw model, swelling and tenderness develop within hours.

Assay [6] has as its system Rattus norvegicus. Put plainly: Antinflammatory activity against carrageenan induced pedal edema rat model assessed as average pedal volume at 30 mg/kg,po administration and measured after 2 hrs (reference value: 2.2 +/- 0.1 mL). The class given is functional.
The test system of assay [7] is Rattus norvegicus. Briefly: Antinflammatory activity against carrageenan induced pedal edema rat model assessed as average pedal volume at 30 mg/kg,po administration and measured after 4 hrs (reference value: 2.41 +/- 0.05 mL). The class given is functional.
Assay [8] has as its system Rattus norvegicus. Briefly: Antinflammatory activity against carrageenan induced pedal edema rat model assessed as inflammation at 30 mg/kg,po administration and measured after 1 hr (reference value: 20.17 +/- 2.8 %). The class given is functional.
The test system of assay [9] is Rattus norvegicus. Put plainly: Antinflammatory activity against carrageenan induced pedal edema rat model assessed as inflammation at 30 mg/kg,po administration and measured after 2 hrs (reference value: 45.39 +/- 6.82 %). The class given is functional.
The test system of assay [10] is Rattus norvegicus. Briefly: Antinflammatory activity against carrageenan induced pedal edema rat model assessed as inflammation at 30 mg/kg,po administration and measured after 4 hrs (reference value: 58.75 +/- 3.5 %). The class given is functional.
Assay [11] concerns Rattus norvegicus. Put plainly: Antinflammatory activity against carrageenan induced pedal edema rat model assessed as reduction in edema at 30 mg/kg,po administration and measured after 1 hr relative to control. The assay is classed as functional. Also on record: scale not given: the % may be the effect or the level left.
The subject of assay [12] is Rattus norvegicus. Put plainly: Antinflammatory activity against carrageenan induced pedal edema rat model assessed as reduction in edema at 30 mg/kg,po administration and measured after 2 hrs relative to control. The class given is functional. Also on record: scale not given: the % may be the effect or the level left.
For assay [13], the system named is Rattus norvegicus. Briefly: Antinflammatory activity against carrageenan induced pedal edema rat model assessed as reduction in edema at 30 mg/kg,po administration and measured after 4 hrs relative to control. The assay is classed as functional. Also on record: scale not given: the % may be the effect or the level left.
Assay [14] has as its system Rattus norvegicus. Put plainly: Antinflammatory activity against carrageenan induced pedal edema rat model assessed as average pedal volume at 10 mg/kg,po administration and measured after 1 hr (reference value: 1.82 +/- 0.04 mL). The assay is classed as functional.
The test system of assay [15] is Rattus norvegicus. Put plainly: Antinflammatory activity against carrageenan induced pedal edema rat model assessed as average pedal volume at 10 mg/kg,po administration and measured after 2 hrs (reference value: 2.2 +/- 0.1 mL). The assay is classed as functional.
Assay [16] concerns Rattus norvegicus. Put plainly: Antinflammatory activity against carrageenan induced pedal edema rat model assessed as average pedal volume at 10 mg/kg,po administration and measured after 4 hrs (reference value: 2.41 +/- 0.05 mL). The class given is functional.
Assay [17] has as its system Rattus norvegicus. Briefly: Antinflammatory activity against carrageenan induced pedal edema rat model assessed as inflammation at 10 mg/kg,po administration and measured after 1 hr (reference value: 20.17 +/- 2.8 %). The class given is functional.
Assay [18] concerns Rattus norvegicus. Briefly: Antinflammatory activity against carrageenan induced pedal edema rat model assessed as inflammation at 10 mg/kg,po administration and measured after 2 hrs (reference value: 45.39 +/- 6.82 %). The class given is functional.
Assay [19] deals with Rattus norvegicus. Put plainly: Antinflammatory activity against carrageenan induced pedal edema rat model assessed as inflammation at 10 mg/kg,po administration and measured after 4 hrs (reference value: 58.75 +/- 3.5 %). The class given is functional.
The test system of assay [20] is Rattus norvegicus. Put plainly: Antinflammatory activity against carrageenan induced pedal edema rat model assessed as reduction in edema at 10 mg/kg,po administration and measured after 1 hr relative to control. The assay is classed as functional. Also on record: scale not given: the % may be the effect or the level left.
The test system of assay [21] is Rattus norvegicus. Briefly: Antinflammatory activity against carrageenan induced pedal edema rat model assessed as reduction in edema at 10 mg/kg,po administration and measured after 2 hrs relative to control. The class given is functional. Also noted: scale not given: the % may be the effect or the level left.
Assay [22] concerns Rattus norvegicus. Put plainly: Antinflammatory activity against carrageenan induced pedal edema rat model assessed as reduction in edema at 10 mg/kg,po administration and measured after 4 hrs relative to control. The class given is functional. Also on record: scale not given: the % may be the effect or the level left.

T1 sequence (Q15722 whole entry, looked up): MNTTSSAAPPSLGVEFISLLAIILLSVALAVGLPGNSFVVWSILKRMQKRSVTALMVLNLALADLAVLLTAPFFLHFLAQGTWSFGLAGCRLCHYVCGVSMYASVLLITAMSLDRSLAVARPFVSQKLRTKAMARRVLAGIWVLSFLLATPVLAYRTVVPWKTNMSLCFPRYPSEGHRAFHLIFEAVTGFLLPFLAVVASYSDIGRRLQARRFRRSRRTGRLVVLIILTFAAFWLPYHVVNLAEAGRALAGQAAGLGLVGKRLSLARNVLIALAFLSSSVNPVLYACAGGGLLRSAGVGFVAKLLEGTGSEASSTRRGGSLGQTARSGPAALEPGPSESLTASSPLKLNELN
T1 sequence (Q9NPC1 whole entry, looked up): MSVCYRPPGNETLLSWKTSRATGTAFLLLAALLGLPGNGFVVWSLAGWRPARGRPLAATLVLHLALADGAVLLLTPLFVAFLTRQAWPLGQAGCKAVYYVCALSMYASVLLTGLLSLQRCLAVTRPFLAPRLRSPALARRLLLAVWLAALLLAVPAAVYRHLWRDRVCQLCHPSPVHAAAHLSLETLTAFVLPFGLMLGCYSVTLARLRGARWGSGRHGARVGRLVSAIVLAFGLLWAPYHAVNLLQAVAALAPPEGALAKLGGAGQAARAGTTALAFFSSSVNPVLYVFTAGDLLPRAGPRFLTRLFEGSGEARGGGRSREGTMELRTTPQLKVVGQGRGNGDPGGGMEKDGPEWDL

Turning to `O=C(O)C1=C(C(=O)N2CCC(c3ccccc3)CC2)Oc2cc(OCc3ccccc3)ccc2O1`, the inhibition on Leukotriene B4 receptor [1] came out at 33%; at Leukotriene B4 receptor [2] it was 12%.

With `CC(OCc1ccccc1)C1=C(C(=O)O)Oc2cc(OCc3ccccc3)ccc2O1` (configuration not stated), the inhibition on Leukotriene B4 receptor [1] (filed as antagonist) was 82%; at Leukotriene B4 receptor [2] it was 0%.

As to `CN(CCc1ccccc1)C(=O)C1=C(C(=O)O)Oc2c(OCc3ccccc3)cccc2O1`, the inhibition turned out to be 94% at Leukotriene B4 receptor [1] (filed as antagonist) and 4.8% against Leukotriene B4 receptor [2]. For the same molecule, the IC50 at Leukotriene B4 receptor [3] worked out at 2700 nM.

For the molecule `O=C(O)C1=C(C(=O)N2CCC(Cc3ccccc3)CC2)Oc2cc(OCc3ccccc3)ccc2O1`, the inhibition came out at 78% against Leukotriene B4 receptor [1] (filed as antagonist) and 27% against Leukotriene B4 receptor [2].

For `CCCc1ccccc1OCCCCCCc1cccc(OCCCCC(=O)O)c1CCC(=O)O`, the Ki at Leukotriene B4 receptor [4] is given as 1 nM.

Regarding `CN(CCc1ccccc1)C(=O)C1=COc2ccc(OCc3ccccc3)cc2O1`, the inhibition at Leukotriene B4 receptor [1] (filed as antagonist) turned out to be 40%; on Leukotriene B4 receptor [2], 0%. On Leukotriene B4 receptor [3], this molecule yielded an IC50 above 10000 nM.

With `CC1(CCOCc2ccccc2)OC(=O)C2=C1Oc1cc(OCc3ccccc3)ccc1O2` (configuration not stated), the inhibition is 13% against Leukotriene B4 receptor [1] and below 10% on Leukotriene B4 receptor [2].

Turning to `CN(CCc1ccccc1)C(=O)C1=C(C(=O)O)Oc2ccc(OCc3ccccc3)cc2O1`, the inhibition was found to be 95% against Leukotriene B4 receptor [1] (filed as antagonist) and 25% at Leukotriene B4 receptor [2]. Besides, the IC50 on Leukotriene B4 receptor [3] is 439 nM.

Consider `CCCc1c(OCCCOc2ccc(C(=O)NC)c(OC)c2CC2CC2)ccc2c1O[C@H](CCC(=O)O)CC2`, for which, on Leukotriene B4 receptor [4], the Ki amounted to 1.3 nM.

Regarding `CN(CCc1ccccc1)C(=O)C1=C(C(=O)O)Oc2cc(OCc3ccccc3)ccc2O1`, the inhibition is 99% against Leukotriene B4 receptor [1] (filed as antagonist) and 38% against Leukotriene B4 receptor [2]. This molecule also had an IC50 at Leukotriene B4 receptor [3] of 288 nM. In addition, the Activity stood at 1.66 mL in the assay on Rattus norvegicus [5]; 2.04 mL with Rattus norvegicus [6]; 2.42 mL in the assay with Rattus norvegicus [7]; 12.17% with Rattus norvegicus [8]; 39.05% in the assay with Rattus norvegicus [9]; 63.63% in the assay with Rattus norvegicus [10]. In addition, the values for the Activity in the assay with Rattus norvegicus [11], in the assay on Rattus norvegicus [12] and with Rattus norvegicus [13] were 39.7%, 16.2% and 8.3%, respectively.

`CC(OC/C=C/c1ccccc1)C1=C(C(=O)O)Oc2ccc(OCc3ccccc3)cc2O1` (configuration not stated): the inhibition is 92% at Leukotriene B4 receptor [1] (filed as antagonist) and 20% on Leukotriene B4 receptor [2].

In the case of `CC(OC/C=C/c1ccccc1)C1=C(C(=O)O)Oc2cc(OCc3ccccc3)ccc2O1` (configuration not stated), the results for the inhibition against Leukotriene B4 receptor [1] (filed as antagonist) and against Leukotriene B4 receptor [2] were 82% and 0%, respectively.

`O=C(O)C1=C(C(=O)N2CCC(Cc3ccccc3)CC2)Oc2ccc(OCc3ccccc3)cc2O1`: the inhibition against Leukotriene B4 receptor [1] (filed as antagonist) worked out at 98%; against Leukotriene B4 receptor [2], 20%. At Leukotriene B4 receptor [3], this molecule displayed an IC50 of 477 nM.

For `CC(OCc1ccc2ccccc2c1)C1=C(C(=O)O)Oc2ccc(OCc3ccccc3)cc2O1` (configuration not stated), the inhibition was determined as 74% against Leukotriene B4 receptor [1] (filed as antagonist) and 0% at Leukotriene B4 receptor [2].

As to `CN(CCc1ccccc1)C(=O)C1=C(C(=O)O)Oc2cccc(OCc3ccccc3)c2O1`, the values for the inhibition against Leukotriene B4 receptor [1] and against Leukotriene B4 receptor [2] were 39% and 6%, respectively.

For the molecule `O=C(O)C1=C(C(=O)N2CCC(Cc3ccccc3)CC2)Oc2cccc(OCc3ccccc3)c2O1`, the inhibition was found to be 62% against Leukotriene B4 receptor [1] (filed as antagonist) and 0% against Leukotriene B4 receptor [2]. Further, the IC50 on Leukotriene B4 receptor [3] is 5610 nM.

As for `CCN(CC)C(=O)C1=C(C(C)OCc2ccccc2)Oc2cc(OCc3ccccc3)ccc2O1` (configuration not stated), the inhibition was 74% on Leukotriene B4 receptor [1] (filed as antagonist) and below 10% against Leukotriene B4 receptor [2].

Turning to `CC(OCc1ccccc1)C1=C(C(=O)O)Oc2ccc(OCc3ccccc3)cc2O1` (configuration not stated), the values for the inhibition against Leukotriene B4 receptor [1] (filed as antagonist) and against Leukotriene B4 receptor [2] were 73% and below 10%, respectively.

`COc1ccc2c(c1)c(CC(=O)O)c(C)n2C(=O)c1ccc(Cl)cc1` [INDOMETHACIN]: the Activity in the assay with Rattus norvegicus [14] came out at 1.65 mL; with Rattus norvegicus [15] it was 1.85 mL; with Rattus norvegicus [16] it was 2.06 mL; with Rattus norvegicus [17] it was 11.1%; in the assay on Rattus norvegicus [18], 24.64%; with Rattus norvegicus [19], 40.19%. Also, the Activity stood at 45% with Rattus norvegicus [20], 45.3% in the assay with Rattus norvegicus [21] and 31.6% with Rattus norvegicus [22].

Molecule `O=C(O)C1=C(C(=O)N2CCC(c3ccccc3)CC2)Oc2ccc(OCc3ccccc3)cc2O1` displayed an inhibition against Leukotriene B4 receptor [1] of 29%.

Turning to `CN(CCc1ccccc1)C(=O)C1=C(C(=O)O)Oc2cc(OCc3ccc4ccccc4c3)ccc2O1`, the figures for the inhibition against Leukotriene B4 receptor [1] (filed as antagonist) and on Leukotriene B4 receptor [2] were 97% and 18%, respectively. In addition, the IC50 on Leukotriene B4 receptor [3] amounted to 710 nM.

The values are drawn from ChEMBL document CHEMBL5360576, “New and promising type of leukotriene B4 (LTB4) antagonists based on the 1,4-benzodioxine structure” (Eur J Med Chem, 2023).
